According to BindingDB's records for doi:10.1021/jm00127a026 (Medical University of South Carolina, 1989):

Assay: The apparent Km of compound as a substrate for partially purified mouse liver Folyl-polyglutamate synthase
Conditions: read-out: Ki

| SMILES | apparent Km [µM] |
| --- | --- |
| NCCCC(NC(=O)c1ccc(OCc2ccc3nc[nH]c(=O)c3c2)cc1)C(=O)O (stereo not given) | 1.2 |
| NCCCC(NC(=O)c1ccc(NCc2ccc3nc(N)nc(N)c3c2Cl)cc1)C(=O)O (stereo not given) | 0.0017 |
| NCCCC(NC(=O)c1ccc(OCc2ccc3nc(N)[nH]c(=O)c3c2)cc1)C(=O)O (stereo not given) | 5.9 |
| NCCCC(NC(=O)c1ccc(SCc2ccc3nc(N)[nH]c(=O)c3c2)cc1)C(=O)O (stereo not given) | 2.8 |
| NCCCC(NC(=O)c1ccc(SCc2ccc3nc[nH]c(=O)c3c2)cc1)C(=O)O (stereo not given) | 0.42 |
